Patent publication US10392357B2, “Glucagon-like peptide 1 modulator and uses thereof” (Academia Sinica, priority 2015, dated 2019)

Experiments:
Type in all cases: cell-based
GLP-1R = target: T1, GLP-1R (UniProt P01275+P32301); test: cell-based; set-up: Activity % of compound 1 (potentiation of GLP-1 induced cAMP production): concentration or dose not given beside the values; details: for Activity % of compound 1 (potentiation of GLP-1 induced cAMP production): relative to compound 1 = 100; for effect on GLP-1R signaling (GLP-1 induced cAMP production): FIG. 1A to 1E
T1 construct: endogenous in cells; host or cells: RINm5F cells stably expressing the RG-cAMP BRET sensor
Method: Next day, cells were washed twice with 0.1 ml phenol red-free MEM containing 5 mM HEPES, and incubated in the same medium for 1 h. The medium was replaced with 90 μL the same medium containing 1 mg/ml BSA and 5 μM DeepBlueC. The whole plate was immediately loaded onto a SpectraMax Paradigm Detection Platform equipped with a Dual-Color luminescence detection cartridge and SoftMax Pro 6.2.2 (Molecular Devices, Sunnyvale, Calif.) to obtain the background BRET signal based on the sequential integration of the luminescence detected at 370-450 and 500-530 nm over 60-150 s. Each well was then stimulated by adding 10 μl of 10× solutions of peptide and lipids and 1 mg/ml BSA in phenol red-free MEM containing 5 mM HEPES, and BRET signals were obtained immediately under identical settings. The BRET ratio is the ratio of light emitted between 90 and 300 s at 500-530 nm to that emitted at 370-450 nm. […] The dose-response curve, maximal response, and concentration of peptide needed to yield half-maximal response (EC50) were obtained by nonlinear regression to fit the data to the agonist versus response equation using Prism software 5.0 (GraphPad, San Diego). Unless specified, all cAMP response data are the means±S.E. from three independent experiments with triplicate assays.

H460 cells = test: Cell viability test (PrestoBlue) in H460 cells; details: 72-h treatment, FIG. 5; for cytotoxicity: test concentration 0.78 to 100 μM
Method: Cytotoxicity of H460 cells to various compounds was assessed using PrestoBlue® reagent, which was modified by the reducing environment of the viable cell and turns from blue to red in color. In brief, 3,000 H460 cells were seeded with 0.1 ml of RPMI 1640 medium in each well of a 96-well plate and incubated at 37° C. for 24 h before compound treatment. After a 72-h compound treatment, PrestoBlue™ cell viability reagent (Invitrogen) was added to each well according to the manufacturer's protocol. The plates were further incubated in the dark at 37° C. in 5% CO2 for 10 min, and absorbance of all wells was read at both the 570- and 600-nm wavelengths using automatic enzyme-linked immunosorbent assay plate reader (Molecular Devices, Union City, Calif.). The raw data were normalized and corrected according to the manufacturer's protocol. All samples were tested in triplicate, and each test was repeated three times. Cell viability was calculated using the following formula: percent of 100×(average corrected values of compound treated cells)/(average corrected values of untreated cells).

RINm5F cells = test: GLP-1-elicited insulin release from RINm5F cells; details: FIG. 4
GLP-1R-V2R chimeric = target: T2, GLP-1R-V2R chimeric (Homo sapiens, UniProt P01275+P43220); test: Receptor endocytosis assay in U2OS cells co-expressing GLP-1R-V2R and β-arrestin2:GFP
T2 construct: the first 440 amino acids of the GLP-1R (Met-1 to Thr-440); vasopressin V2 receptor C-terminal tail, last 29 amino acids, Ala-343 to Ser-371 (AVPR2); expressed in transfected cells; host or cells: U2OS osteosarcoma cells stably expressing beta-arrestin2:GFP (Norak Biosciences), transfected with pcDNA3-GLP-1R-V2R
T2 sequence (P43220 with tags, fused parts or gaps limits assumed): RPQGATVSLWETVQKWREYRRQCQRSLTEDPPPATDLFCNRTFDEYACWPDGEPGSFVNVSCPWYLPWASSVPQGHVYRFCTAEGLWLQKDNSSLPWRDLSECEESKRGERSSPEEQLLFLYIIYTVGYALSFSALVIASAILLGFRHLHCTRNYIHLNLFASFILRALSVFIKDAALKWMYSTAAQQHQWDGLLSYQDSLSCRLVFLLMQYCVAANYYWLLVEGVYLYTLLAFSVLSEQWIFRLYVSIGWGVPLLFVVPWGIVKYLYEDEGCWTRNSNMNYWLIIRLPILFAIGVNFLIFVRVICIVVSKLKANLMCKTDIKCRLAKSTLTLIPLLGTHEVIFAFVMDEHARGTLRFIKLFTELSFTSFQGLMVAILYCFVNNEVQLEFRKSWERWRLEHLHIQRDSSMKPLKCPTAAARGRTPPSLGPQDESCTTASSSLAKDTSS
T2 sequence (P01275 98-127 limits assumed, stated change not applied): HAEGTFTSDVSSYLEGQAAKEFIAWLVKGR
Source text: U2OS osteosarcoma cell line stably expressing a β-arrestin2:GFP fusion protein was obtained from Norak Biosciences. The pcDNA3 GLP-1R-V2R chimeric construct contains the first 440 amino acids of the GLP-1R (Met-1 to Thr-440) fused to the last 29 amino acids of the vasopressin V2 receptor (Ala-343 to Ser-371) and separated by two alanine residues as linker. […]
Images were acquired on an XL model of the ImageXpress® Micro System (Molecular Devices, Sunnyvale, Calif.) and analyzed with MetaXpress High-Content Image Acquisition and Analysis Software (Molecular Devices, Sunnyvale, Calif.) using the granularity and variable grain analysis modules. […] The number of spots, total area covered by spots, average and integrated fluorescence intensity of the spots, and nuclear area and fluorescence intensity were logged into the database. Data from abnormal cells for which the values were above threshold (abnormal: average nuclear staining intensity <500; integrated fluorescence intensity of area covered by spots <150) were ruled out using Acuity Xpress, followed by selection of the measurement method, spot fluorescence integrated intensity to calculate the average number of spots per nucleus. […]

T1 sequence (P32301 22-463): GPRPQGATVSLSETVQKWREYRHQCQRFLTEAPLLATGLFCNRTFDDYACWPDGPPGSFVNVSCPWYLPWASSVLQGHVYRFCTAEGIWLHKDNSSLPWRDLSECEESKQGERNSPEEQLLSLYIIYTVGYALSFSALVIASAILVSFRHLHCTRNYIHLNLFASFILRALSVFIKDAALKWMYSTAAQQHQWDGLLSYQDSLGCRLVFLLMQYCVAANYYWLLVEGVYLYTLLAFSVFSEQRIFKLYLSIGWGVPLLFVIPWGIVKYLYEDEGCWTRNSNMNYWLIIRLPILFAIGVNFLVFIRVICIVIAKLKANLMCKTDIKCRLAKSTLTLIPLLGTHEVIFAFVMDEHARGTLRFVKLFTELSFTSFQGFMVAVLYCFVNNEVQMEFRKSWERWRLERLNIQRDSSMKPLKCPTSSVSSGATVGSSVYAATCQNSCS
T1 sequence (P01275 98-127 limits assumed): as the sequence (P01275 98-127 limits assumed, stated change not applied) above

CC/C=C\C/C=C\C/C=C\CCCCCCCC(=O)O [α-linolenic acid]
Activity % of compound 1 (potentiation of GLP-1 induced cAMP production) (GLP-1R): 15%

CC/C=C\C/C=C\C/C=C\CCCCCCCC(=O)OC [linolenic acid methyl ester]
Activity % of compound 1 (potentiation of GLP-1 induced cAMP production) (GLP-1R): 15%

CCCCC/C=C/C/C=C/CCCCCCCC(=O)OC [Methyl linolelaidate]
Activity % of compound 1 (potentiation of GLP-1 induced cAMP production) (GLP-1R): 30%

CCCCC/C=C/C/C=C/CCCCCCCC(=O)OCC(O)CO (stereo not shown) [1-monolinolein]
Activity % of compound 1 (potentiation of GLP-1 induced cAMP production) (GLP-1R): 80%

CC/C=C\C/C=C\C/C=C\CCCCCCCC(=O)N[C@@H](Cc1ccc(O)cc1)C(=O)O [N-(α-linolenoyl) tyrosine]
Activity % of compound 1 (potentiation of GLP-1 induced cAMP production) (GLP-1R): 70%

CCCCC/C=C\C/C=C\CCCCCCCC(=O)OC [Methyl cis,cis-9,12-octadecadienoate]
Activity % of compound 1 (potentiation of GLP-1 induced cAMP production) (GLP-1R): 15%

CCCCCC/C=C/C=C\CCCCCCCC(=O)O [9(Z),11(E)-conjugated linoleic acid]
Activity % of compound 1 (potentiation of GLP-1 induced cAMP production) (GLP-1R): 25%

CC/C=C\C/C=C\C/C=C\C/C=C\C/C=C\CCCC(=O)O [Eicosapentaenoic acid]
Activity % of compound 1 (potentiation of GLP-1 induced cAMP production) (GLP-1R): 60%

C[C@@H]([C@H](C)O)[C@H](N)C(=O)O [4-hydroxyisoleucine]
Activity % of compound 1 (potentiation of GLP-1 induced cAMP production) (GLP-1R): <10%

CCCCC/C=C\C/C=C\CCCCCCCC(=O)OCC [Ethyl linoleate]
Activity % of compound 1 (potentiation of GLP-1 induced cAMP production) (GLP-1R): 60%

CC/C=C\C/C=C\C/C=C\C/C=C\C/C=C\C/C=C\CCC(=O)NCCO [Docosahexaenoyl ethanolamide]
Activity % of compound 1 (potentiation of GLP-1 induced cAMP production) (GLP-1R): 20%

CC/C=C\C/C=C\C/C=C\C/C=C\C/C=C\CCCC(=O)NCCO [Eicosapentaenoyl ethanolamide]
Activity % of compound 1 (potentiation of GLP-1 induced cAMP production) (GLP-1R): 90%
Activity % of compound 1 (potentiation of GLP-1 induced cAMP production) (GLP-1R; listed as eicosanpentaenoyl ethanolamide): about 90%

CCCCCC/C=C/CCCCCCCCCC(=O)O [11-trans-octadecenoic acid]
Activity % of compound 1 (potentiation of GLP-1 induced cAMP production) (GLP-1R): 10%

CC/C=C\C/C=C\C/C=C\C/C=C\C/C=C\C/C=C\CCC(=O)O [Docosahexaenoic acid]
Activity % of compound 1 (potentiation of GLP-1 induced cAMP production) (GLP-1R): 60%

CCC=CCC=CCC=CCC=CCC=CCC=CCCC(=O)N[C@H]1C(=O)O[C@@H](C)[C@@H]1C [Compound 12]
effect on GLP-1R signaling (GLP-1 induced cAMP production) (GLP-1R; RINm5F cells): enhance the GLP-1R signaling

CCCCC/C=C\C/C=C\CCCCCCCC(=O)OC [linoleic acid methyl ester]
Activity % of compound 1 (potentiation of GLP-1 induced cAMP production) (GLP-1R): 30%

CCCCCC/C=C/C=C/CCCCCCCC(=O)O [9(E),11(E)-conjugated linoleic acid]
Activity % of compound 1 (potentiation of GLP-1 induced cAMP production) (GLP-1R): 30%

CCCCC/C=C\C/C=C\CCCCCCCC(=O)NCC(=O)O [Linoleoyl glycine]
Activity % of compound 1 (potentiation of GLP-1 induced cAMP production) (GLP-1R): 80%

CC/C=C\C/C=C\C/C=C\C/C=C\C/C=C\C/C=C\CCC(=O)NCCc1c[nH]c2ccc(O)cc12 [Docosahexaenoyl serotonin]
Activity % of compound 1 (potentiation of GLP-1 induced cAMP production) (GLP-1R): 15%

CCCCC/C=C\C/C=C\CCCCCCCC(=O)NCCO [Linoleoyl ethanolamide]
Activity % of compound 1 (potentiation of GLP-1 induced cAMP production) (GLP-1R): 90%
Activity % of compound 1 (potentiation of GLP-1 induced cAMP production) (GLP-1R; listed as linoleoyl ethanolamide): about 90%

CCCCC/C=C/C/C=C/CCCCCCCC(=O)O [Linoelaidic acid]
Activity % of compound 1 (potentiation of GLP-1 induced cAMP production) (GLP-1R): 30%

CC/C=C\C/C=C\C/C=C\C/C=C\C/C=C\CCCC(=O)NCCc1c[nH]c2ccc(O)cc12 [Eicosapentaenoyl serotonin]
Activity % of compound 1 (potentiation of GLP-1 induced cAMP production) (GLP-1R): 20%

CCCCCCCC/C=C\CCCCCCCC(=O)NCCO [oleoylethanolamide]
cytotoxicity (H460 cells): did not exhibit detectable cytotoxicity

CC/C=C/C/C=C/C/C=C/C/C=C/C/C=C/C/C=C/CCC(=O)NCC(=O)O [Docosahexaenoyl glycine]
Activity % of compound 1 (potentiation of GLP-1 induced cAMP production) (GLP-1R): 15%

CCCCCCCC/C=C\CCCCCCCC(=O)OC(CO)CO [2-oleoylglycerol]
cytotoxicity (H460 cells): did not exhibit detectable cytotoxicity

GLP-1(7-36)-amide
insulin release from RINm5F cells (RINm5F cells; 2 nM GLP-1 alone): stimulated a low level of insulin release

CCCCC/C=C\C/C=C\CCCCCCCC(=O)NC1C(=O)OC(C)C1C (stereo not shown) [Compound 1, (9Z,12Z)-N-(4,5-Dimethyl-2-oxotetrahydrofuran-3-yl)octadeca-9,12-dienamide]
relative potency among the compounds of formula (I) tested in example 2 (GLP-1R; RINm5F cells): most potency
effect on GLP-1R signaling (GLP-1 induced cAMP production) (GLP-1R; RINm5F cells): enhance the GLP-1R signaling
shift of the GLP-1 dose-response curve (cAMP production) to the left (GLP-1R; compound 1 increased from 0.8 μM to 26 μM, FIG. 2 panel A): > 10 fold
EC50 (GLP-1R; dose dependent and saturable, FIG. 2 panel B): 3.7 µM
Activity % of compound 1 (potentiation of GLP-1 induced cAMP production) (GLP-1R): 100%
EC50 (GLP-1R-V2R chimeric): 0.87 µM
effect on insulin release elicited by GLP-1 (RINm5F cells; 7.7 μM compound added to 2 nM GLP-1): significantly enhanced
insulin release by compound alone (RINm5F cells; compound alone, without GLP-1): did not trigger any insulin release
cytotoxicity (H460 cells): did not exhibit detectable cytotoxicity

CCCCCCCC/C=C\CCCCCCCC(=O)O [Oleic acid]
Activity % of compound 1 (potentiation of GLP-1 induced cAMP production) (GLP-1R): 35%

CCCCC/C=C\C/C=C\C/C=C\CCCCC(=O)OC [Methyl γ-linolenate]
Activity % of compound 1 (potentiation of GLP-1 induced cAMP production) (GLP-1R): 20%

CCCCC/C=C\C/C=C\C/C=C\CCCCC(=O)OC [γ-linoleic acid methyl ester]
Activity % of compound 1 (potentiation of GLP-1 induced cAMP production) (GLP-1R): 25%

N.N.[Cl][Pt][Cl] [cisplatin]
IC50 (H460 cells): 6.7 µM

Cis-octadecenoic acid
Activity % of compound 1 (potentiation of GLP-1 induced cAMP production) (GLP-1R): 25%

CCCCC/C=C\C=C\CCCCCCCCC(=O)O [10(E),12(Z)-conjugated linoleic acid]
Activity % of compound 1 (potentiation of GLP-1 induced cAMP production) (GLP-1R): 30%
